We go through ten compounds from BindingDB's records for doi:10.3109/14756369809035823 (Orstom, 1998).

The structures appear in SMILES notation. Where “and” joins values, the source holds several entries; their conditions need not be identical. Equal values may be shown once.

The term IC50 denotes the concentration needed to halve the response being measured. A high value points to a need for much substance.

Chain of Trypanothione reductase (P39040 whole entry): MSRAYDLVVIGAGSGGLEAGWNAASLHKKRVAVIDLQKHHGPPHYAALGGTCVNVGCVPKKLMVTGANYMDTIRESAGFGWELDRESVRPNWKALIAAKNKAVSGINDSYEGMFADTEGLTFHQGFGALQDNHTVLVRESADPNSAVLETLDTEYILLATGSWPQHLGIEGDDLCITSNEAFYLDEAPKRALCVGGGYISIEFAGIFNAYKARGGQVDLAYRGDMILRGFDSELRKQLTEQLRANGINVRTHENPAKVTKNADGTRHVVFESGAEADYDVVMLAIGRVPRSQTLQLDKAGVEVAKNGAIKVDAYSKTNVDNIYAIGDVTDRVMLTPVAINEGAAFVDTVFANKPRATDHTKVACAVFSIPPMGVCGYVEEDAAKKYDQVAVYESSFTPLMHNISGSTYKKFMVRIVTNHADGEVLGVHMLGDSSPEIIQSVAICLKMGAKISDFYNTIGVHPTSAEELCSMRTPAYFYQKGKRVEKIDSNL

The target of the experiment is Trypanothione reductase (Crithidia fasciculata, UniProt P39040). As to the kind of experiment: Inhibition Assay. As to conditions: pH 7.8; 25 °C. The source says:
Crithidia fasciculata trypanothione reductase (cfTR) was purifed from E.coli using the expression system. The activity of the cfTR was observed from the rate of oxidation of the co-substrate NADPH to NADP+ as measured by a decrease in absorbance at 340nm.
`COc1ccc2cc1Oc1ccc(cc1)C[C@H]1c3cc(c(OC)cc3CCN1C)Oc1c(O)c(OC)cc3c1[C@@H](C2)N(C)CC3` [Limacine (R,R)] showed an IC50 of 90 µM.
As for `COc1ccc2cc1Oc1ccc(cc1)C[C@H]1c3c(cc(O)c(OC)c3Oc3cc4c(cc3OC)CCN(C)[C@@H]4C2)CCN1C` [Gyrocarpine (S,R)], the figure is 58 µM; as for `COc1cc2c3cc1Oc1cc(ccc1O)C[C@@H]1c4c(cc(OC)c(O)c4Oc4ccc(cc4)C[C@H]3N(C)CC2)CCN1C` [(-)-BEBEERINE], 60 µM; as for `COc1cc2c(cc1O)[C@@H](Cc1ccc(Oc3cc(C[C@H]4NCCc5cc(OC)c(O)cc54)ccc3O)cc1)NCC2` [Lindoldhamine (R,R)], 27 µM.
For `COc1cc2c3cc1Oc1c(O)c(OC)cc4c1[C@H](Cc1ccc(OC)c(c1)-c1cc(ccc1O)C[C@H]3N(C)CC2)N(C)CC4` the value was 60 µM; for `COc1cc2c3cc1Oc1c(O)c(OC)cc4c1[C@H](Cc1ccc(cc1)Oc1cc(ccc1O)C[C@H]3NCC2)N(C)CC4` (racemic) [Daphnoline (R,S)], 50 µM; for `COc1cc2c3c(c1OC)Oc1ccc(cc1)C[C@@H]1c4c(cc(OC)c(OC)c4Oc4ccc(cc4)C[C@H]3N(C)CC2)CCN1C` [Cycleanine (R,R)], 303 µM.
For `COc1ccc2cc1Oc1ccc(cc1)C[C@H]1c3c(cc4c(c3Oc3cc5c(cc3OC)CCN(C)[C@H]5C2)OCO4)CCN1C` [Cepharanthine] the value was 15 µM; for `COc1ccc2cc1Oc1ccc(cc1)C[C@H]1c3c(cc(OC)c(O)c3Oc3cc4c(cc3OC)CCN(C)[C@@H]4C2)CCN1C`, 55 µM; for `COc1ccc2cc1Oc1ccc(cc1)C[C@H]1c3cc(c(OC)cc3CCN1C)Oc1c(OC)c(OC)cc3c1[C@@H](C2)N(C)CC3`, 122 µM and 235 µM.
